How the values were obtained:
[1] = system: bluegrass; assay: Test D preemergence; format: in vivo, Poa annua; conditions: for Plant response rating (0 to 100), Bluegrass: 16 g ai/ha, 0 is no effect, 100 is complete control; for Plant response rating: Bluegrass: scale 0 to 100
From the text: (§1) Seeds of plant species selected from bluegrass (annual bluegrass, Poa annua), blackgrass (Alopecurus myosuroides), canarygrass (Phalaris minor), chickweed (common chickweed, Stellaria media), galium (catchweed bedstraw, Galium aparine), bromegrass, down (downy bromegrass, Bromus tectorum), Russian thistle (Salsola kali), field poppy (Papaver rhoeas), field violet (Viola arvensis), foxtail, green (green foxtail, Setaria viridis), deadnettle (henbit deadnettle, Lamium amplexicaule), ryegrass, Ital. (Italian ryegrass, Lolium multiflorum), kochia (Kochia scoparia), lambsquarters (Chenopodium album), oilseed rape (Brassica napus), pigweed (Amaranthus retroflexus), chamomile (scentless chamomile, Matricaria inodora), speedwell (bird's-eye speedwell, Veronica persica), barley, spring (spring barley, Hordeum vulgare), wheat, spring (spring wheat, Triticum aestivum), buckwheat, wild (wild buckwheat, Polygonum convolvulus), wild mustard (Sinapis arvensis), oat, wild (wild oat, Avena fatua), radish, wild (wild radish, Raphanus raphanistrum), […]), barley, winter (winter barley, Hordeum vulgare), and wheat, winter (winter wheat, Triticum aestivum) were planted into a silt loam soil and treated preemergence with test chemicals formulated in a non-phytotoxic solvent mixture which included a surfactant. At the same time, these species were planted in pots containing Sunshine Redi-Earth® planting medium comprising spaghnum peat moss, vermiculite, starter nutrients and dolomitic limestone and treated with postemergence applications of the test chemicals formulated in the same manner. Plants ranged in height from 2 to 18 cm (1- to 4-leaf stage). Treated plants and controls were maintained in a controlled growth environment for 14 to 21 d after which time all species were compared to controls and visually evaluated. […] A dash (-) response means no test result.

[2] = system: windgrass; assay: Test D postemergence; format: in vivo, Apera spica-venti; conditions: scale 0 to 100
From the text: as §1

[3] = system: barley, winter; assay: Test D postemergence; format: in vivo, Hordeum vulgare; conditions: scale 0 to 100
From the text: as §1

[4] = system: barley, spring; assay: Test D postemergence; format: in vivo, Hordeum vulgare; conditions: scale 0 to 100
From the text: as §1

[5] = system: canarygrass; assay: Test D preemergence; format: in vivo, Phalaris minor; conditions: for Plant response rating (0 to 100), Canarygrass: 16 g ai/ha, 0 is no effect, 100 is complete control; for Plant response rating: Canarygrass: scale 0 to 100
From the text: as §1

[6] = system: Russian thistle; assay: Test D preemergence; format: in vivo, Salsola kali; conditions: for Plant response rating (0 to 100), Russian Thistle: 16 g ai/ha, 0 is no effect, 100 is complete control; for Plant response rating: Russian Thistle: scale 0 to 100
From the text: as §1

[7] = system: blackgrass; assay: Test A postemergence; format: in vivo, Alopecurus myosuroides; conditions: 0 to 100 scale (0 no effect, 100 complete control), approx. 10 d
Method in brief: (§2)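 Visual 0–100 ratings (0 no effect, 100 complete control) made roughly 10 days after treatment, comparing greenhouse-grown plants to untreated controls. Formulated test chemicals, with surfactant, went either as directed soil spray at planting or onto 2–10 cm seedlings bearing one to two leaves.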

[8] = system: field poppy; assay: Test D preemergence; format: in vivo, Papaver rhoeas; conditions: for Plant response rating (0 to 100), Field Poppy: 16 g ai/ha, 0 is no effect, 100 is complete control; for Plant response rating: Field Poppy: scale 0 to 100
From the text: as §1

[9] = system: ragweed; assay: Test A postemergence; format: in vivo, Ambrosia elatior; conditions: 0 to 100 scale (0 no effect, 100 complete control), approx. 10 d
Method in brief: as §2

[10] = system: deadnettle; assay: Test D postemergence; format: in vivo, Lamium amplexicaule; conditions: scale 0 to 100
From the text: as §1

[11] = system: ryegrass, Italian; assay: Test A postemergence; format: in vivo, Lolium multiflorum; conditions: 0 to 100 scale (0 no effect, 100 complete control), approx. 10 d
Method in brief: as §2

Row | SMILES | Plant response rating (0 to 100), Bluegrass [1] | Plant response rating: Bluegrass ([1]; 31 g ai/ha) | Plant response rating: Bluegrass ([1]; 62 g ai/ha) | Plant response rating: Bluegrass ([1]; 125 g ai/ha) | Plant response rating: Windgrass ([2]; 16 g ai/ha) | Plant response rating: Windgrass ([2]; 31 g ai/ha) | Plant response rating: Windgrass ([2]; 62 g ai/ha) | Plant response rating: Windgrass ([2]; 125 g ai/ha) | Plant response rating: Barley, Winter ([3]; 16 g ai/ha) | Plant response rating: Barley, Winter ([3]; 31 g ai/ha) | Plant response rating: Barley, Winter ([3]; 62 g ai/ha) | Plant response rating: Barley, Winter ([3]; 125 g ai/ha) | Plant response rating: Barley, Spring ([4]; 16 g ai/ha) | Plant response rating: Barley, Spring ([4]; 31 g ai/ha) | Plant response rating: Barley, Spring ([4]; 62 g ai/ha) | Plant response rating: Barley, Spring ([4]; 125 g ai/ha) | Plant response rating (0 to 100), Canarygrass [5] | Plant response rating: Canarygrass ([5]; 31 g ai/ha) | Plant response rating: Canarygrass ([5]; 62 g ai/ha) | Plant response rating: Canarygrass ([5]; 125 g ai/ha) | also measured
1 | CCOc1nc(-c2ccccc2)nn1Cc1ccnc(C(F)(F)F)c1 [Compound 27] | 20 | 55 | 85 | 100 | 60 | 65 | 70 | 70 | 15 | 25 | 30 | 35 | 25 | 25 | 35 | 35 | 35 | 55 | 75 | 98 | Plant response rating (0 to 100), Russian Thistle [6]: 75; Plant response rating: Russian Thistle ([6]; 62 g ai/ha): 85; Plant response rating: Russian Thistle ([6]; 125 g ai/ha): 85; Plant response rating, Blackgrass ([7]; 125 g ai/ha): 70; Plant response rating, Blackgrass ([7]; 500 g ai/ha): 80; Plant response rating (0 to 100), Field Poppy [8]: 95; Plant response rating: Field Poppy ([8]; 62 g ai/ha): 100; Plant response rating: Field Poppy ([8]; 125 g ai/ha): 100; Plant response rating, Ragweed ([9]; 125 g ai/ha): 50; Plant response rating, Ragweed ([9]; 500 g ai/ha): 70; Plant response rating: Deadnettle ([10]; 16 g ai/ha): 55; Plant response rating: Deadnettle ([10]; 31 g ai/ha): 75; Plant response rating: Deadnettle ([10]; 62 g ai/ha): 95; Plant response rating: Deadnettle ([10]; 125 g ai/ha): 100; Plant response rating, Ryegrass, Italian ([11]; 125 g ai/ha): 50; Plant response rating, Ryegrass, Italian ([11]; 500 g ai/ha): 90
2 | FC(F)(F)COc1nc(-c2ccccc2)nn1Cc1ccnc(C(F)(F)F)c1 [Compound 24] | 20 | 75 | 80 | 98 | 20 | 35 | 45 | 60 | 15 | 15 | 25 | 25 | 20 | 25 | 30 | 35 | 55 | 50 | 60 | 75 | Plant response rating (0 to 100), Russian Thistle [6]: 65; Plant response rating: Russian Thistle ([6]; 62 g ai/ha): 85; Plant response rating: Russian Thistle ([6]; 125 g ai/ha): 85; Plant response rating, Blackgrass ([7]; 125 g ai/ha): 40; Plant response rating, Blackgrass ([7]; 500 g ai/ha): 60; Plant response rating (0 to 100), Field Poppy [8]: 95; Plant response rating: Field Poppy ([8]; 62 g ai/ha): 100; Plant response rating: Field Poppy ([8]; 125 g ai/ha): 100; Plant response rating, Ragweed ([9]; 125 g ai/ha): 50; Plant response rating, Ragweed ([9]; 500 g ai/ha): 70; Plant response rating: Deadnettle ([10]; 16 g ai/ha): 40; Plant response rating: Deadnettle ([10]; 31 g ai/ha): 60; Plant response rating: Deadnettle ([10]; 62 g ai/ha): 70; Plant response rating: Deadnettle ([10]; 125 g ai/ha): 85; Plant response rating, Ryegrass, Italian ([11]; 125 g ai/ha): 30; Plant response rating, Ryegrass, Italian ([11]; 500 g ai/ha): 60
3 | COc1nc(-c2ccc(Cl)cc2)nn1Cc1ccnc(C(F)(F)F)c1 [Compound 28] | 25 | 35 | 45 | 85 | 25 | 25 | 45 | 45 | 10 | 15 | 20 | 25 | 15 | 20 | 20 | 25 | 10 | 40 | 60 | 65 | Plant response rating (0 to 100), Russian Thistle [6]: 70; Plant response rating: Russian Thistle ([6]; 62 g ai/ha): 85; Plant response rating: Russian Thistle ([6]; 125 g ai/ha): 85; Plant response rating, Blackgrass ([7]; 125 g ai/ha): 10; Plant response rating, Blackgrass ([7]; 500 g ai/ha): 40; Plant response rating (0 to 100), Field Poppy [8]: 70; Plant response rating: Field Poppy ([8]; 62 g ai/ha): 100; Plant response rating: Field Poppy ([8]; 125 g ai/ha): 100; Plant response rating, Ragweed ([9]; 125 g ai/ha): 20; Plant response rating, Ragweed ([9]; 500 g ai/ha): 30; Plant response rating: Deadnettle ([10]; 16 g ai/ha): 50; Plant response rating: Deadnettle ([10]; 31 g ai/ha): 60; Plant response rating: Deadnettle ([10]; 62 g ai/ha): 70; Plant response rating: Deadnettle ([10]; 125 g ai/ha): 75; Plant response rating, Ryegrass, Italian ([11]; 125 g ai/ha): 20; Plant response rating, Ryegrass, Italian ([11]; 500 g ai/ha): 50
4 | Fc1ccc(-c2nc(OCC(F)(F)F)n(Cc3ccnc(C(F)(F)F)c3)n2)cc1 [Compound 30] | 75 | 75 | 100 | 100 | 45 | 65 | 75 | 85 | 20 | 25 | 30 | 40 | 30 | 40 | 35 | 45 | 50 | 70 | 100 | 100 | Plant response rating (0 to 100), Russian Thistle [6]: 80; Plant response rating: Russian Thistle ([6]; 62 g ai/ha): 90; Plant response rating: Russian Thistle ([6]; 125 g ai/ha): 90; Plant response rating, Blackgrass ([7]; 125 g ai/ha): 30; Plant response rating, Blackgrass ([7]; 500 g ai/ha): 80; Plant response rating (0 to 100), Field Poppy [8]: 95; Plant response rating: Field Poppy ([8]; 62 g ai/ha): 100; Plant response rating: Field Poppy ([8]; 125 g ai/ha): 100; Plant response rating, Ragweed ([9]; 125 g ai/ha): 40; Plant response rating, Ragweed ([9]; 500 g ai/ha): 70; Plant response rating: Deadnettle ([10]; 16 g ai/ha): 70; Plant response rating: Deadnettle ([10]; 31 g ai/ha): 75; Plant response rating: Deadnettle ([10]; 62 g ai/ha): 90; Plant response rating: Deadnettle ([10]; 125 g ai/ha): 100; Plant response rating, Ryegrass, Italian ([11]; 125 g ai/ha): 50; Plant response rating, Ryegrass, Italian ([11]; 500 g ai/ha): 80
